{
  "source": "paper PMC4796655",
  "about": "“Structural insights into the methyl donor recognition model of a novel membrane-binding protein UbiG” (Scientific Reports, 2016)",
  "format_in_all_cases": "binding",
  "conditions_in_all_cases": "read-out: [drawing 1] /",
  "key": {"UbiG [1]": {"molecular_target": "T1, UbiG (Escherichia coli, UniProt P17993, I177A/P182A/V181A)", "T1 construct": "full-length, 240 residues, pET28a-UbiG (1-240), expressed in E. coli BL21 (DE3); purified as described previously", "T1 sequence (P17993 whole entry I177A/V181A/P182A)": "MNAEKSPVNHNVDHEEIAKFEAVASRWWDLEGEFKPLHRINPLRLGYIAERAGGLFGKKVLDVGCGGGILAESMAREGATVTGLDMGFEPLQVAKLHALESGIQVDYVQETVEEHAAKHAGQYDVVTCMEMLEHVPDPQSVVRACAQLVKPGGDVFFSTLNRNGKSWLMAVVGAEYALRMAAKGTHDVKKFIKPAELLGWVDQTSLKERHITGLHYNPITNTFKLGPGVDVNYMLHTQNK", "experiment": "isothermal titration calorimetry", "from_the_text": "(§1) isothermal titration calorimetry on UbiG"}, "UbiG [2]": {"molecular_target": "T2, UbiG (Escherichia coli, UniProt P17993)", "T2 construct": "full-length, 240 residues, pET28a-UbiG (1-240), expressed in E. coli BL21 (DE3); purified as described previously", "T2 sequence (P17993 1-240)": "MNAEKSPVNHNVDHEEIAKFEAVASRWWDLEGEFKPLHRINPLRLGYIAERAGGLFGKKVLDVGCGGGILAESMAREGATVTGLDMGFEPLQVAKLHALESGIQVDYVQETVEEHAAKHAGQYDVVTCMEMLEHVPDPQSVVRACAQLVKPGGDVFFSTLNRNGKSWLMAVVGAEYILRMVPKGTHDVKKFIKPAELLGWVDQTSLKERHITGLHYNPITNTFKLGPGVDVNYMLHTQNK", "experiment": "isothermal titration calorimetry", "from_the_text": "as §1"}, "UbiG [3]": {"molecular_target": "T3, UbiG (Escherichia coli, UniProt P17993, V172A/Y176A)", "T3 construct": "full-length, 240 residues, pET28a-UbiG (1-240), expressed in E. coli BL21 (DE3); purified as described previously", "T3 sequence (P17993 whole entry V172A/Y176A)": "as the sequence (P17993 whole entry I177A/V181A/P182A) above, with V172A, Y176A, A177I, A181V, A182P counted along it", "experiment": "isothermal titration calorimetry", "from_the_text": "as §1"}, "UbiG [4]": {"molecular_target": "T4, UbiG (Escherichia coli, UniProt P17993, DEL165-187)", "T4 construct": "full-length, 240 residues, pET28a-UbiG (1-240), expressed in E. coli BL21 (DE3); purified as described previously", "T4 sequence (P17993 other isoform, or with tags, fused parts or gaps DEL165-187)": "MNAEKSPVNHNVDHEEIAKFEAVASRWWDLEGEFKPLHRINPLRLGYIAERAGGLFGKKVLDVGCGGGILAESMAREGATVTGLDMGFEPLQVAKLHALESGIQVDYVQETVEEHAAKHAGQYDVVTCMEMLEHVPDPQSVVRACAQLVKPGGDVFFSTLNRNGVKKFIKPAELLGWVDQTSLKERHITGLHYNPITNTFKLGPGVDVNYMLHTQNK", "experiment": "isothermal titration calorimetry; X-ray structure of the complex […] Å"}},
  "data": [
    {"smiles": "Nc1ncnc2c1ncn2[C@@H]1O[C@H](CSCC[C@H](N)C(=O)O)[C@@H](O)[C@H]1O", "note": "[SAH]", "values": [
      {"measurement": "Kd", "setting": "UbiG [1]", "value": "2.77 ± 0.36", "unit": "µM"},
      {"measurement": "Kd", "setting": "UbiG [2]", "value": "104 ± 17.2", "unit": "µM"},
      {"measurement": "Kd", "setting": "UbiG [3]", "value": "3.37 ± 0.84", "unit": "µM"},
      {"measurement": "Kd", "setting": "UbiG [4]", "value": "1.84 ± 0.16", "unit": "µM"}
    ]}
  ]
}
